From publication PMC10518257 (Nature Cancer, 2023)
Several values for one entry are separate records, joined by “and”; a condition that tells them apart may be missing. Identical values can stand only once.

What was measured:
[1] = test system: LUAD-0087AS2 PDX; experiment: PDX efficacy study; settings: Fig. 6a LUAD-0087AS2; selpercatinib 30 mg/kg BID; individual animals
[2] = biological target: T1, recombinant human RET (Homo sapiens, UniProt P07949); experiment: RET^WT kinase-inhibition assay (LANCE TR-FRET); assay type: biochemical; settings: 10 μM ATP
T1 construct: purchased Carna Biosciences, Inc (Kobe, Japan)

[3] = biological target: panel of 255 (vepafestinib) or 256 (all other inhibitors) recombinant kinases; experiment: Kinase selectivity profiling at a single concentration (Carna Biosciences); assay type: biochemical; settings: 26 nM, 256 kinases
[4] = biological target: T2, KIF5B–RET WT (Homo sapiens, UniProt P07949); experiment: In-cell western assay of RET autophosphorylation; assay type: cell-based; settings: Jump-In GripTite HEK293, 1 h, phospho-RET (Y905)/RET
T2 construct: Fusion of the RET kinase domain with several N-terminal partners such as kinesin family 5B (KIF5B); KIF5B (N-terminal fusion partner); expressed in transfected cells; host or cells: Jump-In GripTite HEK293 (transient, pJTI Fast-based vector)

[5] = biological target: T3, KIF5B–RET L730Q (Homo sapiens, UniProt P07949, L730Q); experiment: In-cell western assay of RET autophosphorylation; assay type: cell-based; settings: Jump-In GripTite HEK293 cells, one hour; Mean
T3 construct: Fusion of the RET kinase domain with several N-terminal partners such as kinesin family 5B (KIF5B); KIF5B (N-terminal fusion partner); expressed in transfected cells; host or cells: Jump-In GripTite HEK293 (transient)

[6] = biological target: T4, KIF5B–RET L730R (Homo sapiens, UniProt P07949, L730R); experiment: In-cell western assay of RET autophosphorylation; assay type: cell-based; settings: Jump-In GripTite HEK293 cells, one hour; Mean
T4 construct: Fusion of the RET kinase domain with several N-terminal partners such as kinesin family 5B (KIF5B); KIF5B (N-terminal fusion partner); expressed in transfected cells; host or cells: Jump-In GripTite HEK293 (transient)

[7] = biological target: T5, KIF5B–RET E732K (Homo sapiens, UniProt P07949, E732K); experiment: In-cell western assay of RET autophosphorylation; assay type: cell-based; settings: Jump-In GripTite HEK293 cells, one hour; Mean
T5 construct: Fusion of the RET kinase domain with several N-terminal partners such as kinesin family 5B (KIF5B); KIF5B (N-terminal fusion partner); expressed in transfected cells; host or cells: Jump-In GripTite HEK293 (transient)

[8] = biological target: T6, KIF5B–RET G736A (Homo sapiens, UniProt P07949, G736A); experiment: In-cell western assay of RET autophosphorylation; assay type: cell-based; settings: Jump-In GripTite HEK293 cells, one hour; Mean
T6 construct: Fusion of the RET kinase domain with several N-terminal partners such as kinesin family 5B (KIF5B); KIF5B (N-terminal fusion partner); expressed in transfected cells; host or cells: Jump-In GripTite HEK293 (transient)

[9] = biological target: T7, KIF5B–RET M759I (Homo sapiens, UniProt P07949, M759I); experiment: In-cell western assay of RET autophosphorylation; assay type: cell-based; settings: Jump-In GripTite HEK293 cells, one hour; Mean (TPX-0046: the three replicates)
T7 construct: Fusion of the RET kinase domain with several N-terminal partners such as kinesin family 5B (KIF5B); KIF5B (N-terminal fusion partner); expressed in transfected cells; host or cells: Jump-In GripTite HEK293 (transient)

[10] = biological target: T8, KIF5B–RET L760Q (Homo sapiens, UniProt P07949, L760Q); experiment: In-cell western assay of RET autophosphorylation; assay type: cell-based; settings: Jump-In GripTite HEK293 cells, one hour; Mean
T8 construct: Fusion of the RET kinase domain with several N-terminal partners such as kinesin family 5B (KIF5B); KIF5B (N-terminal fusion partner); expressed in transfected cells; host or cells: Jump-In GripTite HEK293 (transient)

[11] = biological target: T9, KIF5B–RET E768Q (Homo sapiens, UniProt P07949, E768Q); experiment: In-cell western assay of RET autophosphorylation; assay type: cell-based; settings: Jump-In GripTite HEK293 cells, one hour; Mean
T9 construct: Fusion of the RET kinase domain with several N-terminal partners such as kinesin family 5B (KIF5B); KIF5B (N-terminal fusion partner); expressed in transfected cells; host or cells: Jump-In GripTite HEK293 (transient)

[12] = biological target: T10, KIF5B–RET L772M (Homo sapiens, UniProt P07949, L772M); experiment: In-cell western assay of RET autophosphorylation; assay type: cell-based; settings: Jump-In GripTite HEK293 cells, one hour; Mean
T10 construct: Fusion of the RET kinase domain with several N-terminal partners such as kinesin family 5B (KIF5B); KIF5B (N-terminal fusion partner); expressed in transfected cells; host or cells: Jump-In GripTite HEK293 (transient)

[13] = biological target: T11, KIF5B–RET I788N (Homo sapiens, UniProt P07949, I788N); experiment: In-cell western assay of RET autophosphorylation; assay type: cell-based; settings: Jump-In GripTite HEK293 cells, one hour; Mean
T11 construct: Fusion of the RET kinase domain with several N-terminal partners such as kinesin family 5B (KIF5B); KIF5B (N-terminal fusion partner); expressed in transfected cells; host or cells: Jump-In GripTite HEK293 (transient)

[14] = biological target: T12, KIF5B–RET Y806C (Homo sapiens, UniProt P07949, Y806C); experiment: In-cell western assay of RET autophosphorylation; assay type: cell-based; settings: Jump-In GripTite HEK293 cells, one hour; Mean
T12 construct: Fusion of the RET kinase domain with several N-terminal partners such as kinesin family 5B (KIF5B); KIF5B (N-terminal fusion partner); expressed in transfected cells; host or cells: Jump-In GripTite HEK293 (transient)

[15] = biological target: T13, KIF5B–RET G810A (Homo sapiens, UniProt P07949, G810A); experiment: In-cell western assay of RET autophosphorylation; assay type: cell-based; settings: Jump-In GripTite HEK293 cells, one hour; Mean
T13 construct: Fusion of the RET kinase domain with several N-terminal partners such as kinesin family 5B (KIF5B); KIF5B (N-terminal fusion partner); expressed in transfected cells; host or cells: Jump-In GripTite HEK293 (transient)

[16] = biological target: T14, KIF5B–RET G810C (Homo sapiens, UniProt P07949, G810C); experiment: In-cell western assay of RET autophosphorylation; assay type: cell-based; settings: Jump-In GripTite HEK293 cells, one hour; Mean
T14 construct: Fusion of the RET kinase domain with several N-terminal partners such as kinesin family 5B (KIF5B); KIF5B (N-terminal fusion partner); expressed in transfected cells; host or cells: Jump-In GripTite HEK293 (transient)

[17] = biological target: T15, KIF5B–RET G810D (Homo sapiens, UniProt P07949, G810D); experiment: In-cell western assay of RET autophosphorylation; assay type: cell-based; settings: Jump-In GripTite HEK293 cells, one hour; Mean
T15 construct: Fusion of the RET kinase domain with several N-terminal partners such as kinesin family 5B (KIF5B); KIF5B (N-terminal fusion partner); expressed in transfected cells; host or cells: Jump-In GripTite HEK293 (transient)

[18] = biological target: T16, KIF5B–RET G810S (Homo sapiens, UniProt P07949, G810S); experiment: In-cell western assay of RET autophosphorylation; assay type: cell-based; settings: Jump-In GripTite HEK293 cells, one hour; Mean
T16 construct: Fusion of the RET kinase domain with several N-terminal partners such as kinesin family 5B (KIF5B); KIF5B (N-terminal fusion partner); expressed in transfected cells; host or cells: Jump-In GripTite HEK293 (transient)

[19] = biological target: T17, KIF5B–RET G810R (Homo sapiens, UniProt P07949, G810R); experiment: In-cell western assay of RET autophosphorylation; assay type: cell-based; settings: Jump-In GripTite HEK293, 1 h, phospho-RET (Y905)/RET
T17 construct: Fusion of the RET kinase domain with several N-terminal partners such as kinesin family 5B (KIF5B); KIF5B (N-terminal fusion partner); expressed in transfected cells; host or cells: Jump-In GripTite HEK293 (transient)

[20] = in vivo; settings: male, BALB/c, mouse, brain and plasma, po, 50 mg/kg, Kp,uu,brain (unbound brain/plasma concentration ratio), male BALB/c mice, 50 mg per kg oral, 0.5 h or 1 h

T7 sequence (P07949 713-1063 M759I limits assumed): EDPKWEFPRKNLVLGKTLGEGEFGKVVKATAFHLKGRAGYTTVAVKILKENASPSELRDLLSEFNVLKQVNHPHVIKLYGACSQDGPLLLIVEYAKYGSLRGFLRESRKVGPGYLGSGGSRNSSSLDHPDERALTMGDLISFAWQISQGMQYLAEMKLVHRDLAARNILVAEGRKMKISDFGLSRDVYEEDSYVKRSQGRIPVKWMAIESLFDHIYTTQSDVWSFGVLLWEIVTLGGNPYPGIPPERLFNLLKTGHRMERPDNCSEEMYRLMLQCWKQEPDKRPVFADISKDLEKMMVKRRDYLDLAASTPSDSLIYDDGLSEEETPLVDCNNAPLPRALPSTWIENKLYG
T17 sequence (P07949 713-1063 G810R limits assumed): as the sequence (P07949 713-1063 M759I limits assumed) above, with I47M, G98R counted along it
T8 sequence (P07949 713-1063 L760Q limits assumed): as the sequence (P07949 713-1063 M759I limits assumed) above, with I47M, L48Q counted along it
T14 sequence (P07949 713-1063 G810C limits assumed): as the sequence (P07949 713-1063 M759I limits assumed) above, with I47M, G98C counted along it
T9 sequence (P07949 713-1063 E768Q limits assumed): as the sequence (P07949 713-1063 M759I limits assumed) above, with I47M, E56Q counted along it
T10 sequence (P07949 713-1063 L772M limits assumed): as the sequence (P07949 713-1063 M759I limits assumed) above, with I47M, L60M counted along it
T3 sequence (P07949 713-1063 L730Q limits assumed): as the sequence (P07949 713-1063 M759I limits assumed) above, with L18Q, I47M counted along it
T5 sequence (P07949 713-1063 E732K limits assumed): as the sequence (P07949 713-1063 M759I limits assumed) above, with E20K, I47M counted along it
T12 sequence (P07949 713-1063 Y806C limits assumed): as the sequence (P07949 713-1063 M759I limits assumed) above, with I47M, Y94C counted along it
T11 sequence (P07949 713-1063 I788N limits assumed): as the sequence (P07949 713-1063 M759I limits assumed) above, with I47M, I76N counted along it
T15 sequence (P07949 713-1063 G810D limits assumed): as the sequence (P07949 713-1063 M759I limits assumed) above, with I47M, G98D counted along it
T4 sequence (P07949 713-1063 L730R limits assumed): as the sequence (P07949 713-1063 M759I limits assumed) above, with L18R, I47M counted along it
T1 sequence (P07949 29-1114): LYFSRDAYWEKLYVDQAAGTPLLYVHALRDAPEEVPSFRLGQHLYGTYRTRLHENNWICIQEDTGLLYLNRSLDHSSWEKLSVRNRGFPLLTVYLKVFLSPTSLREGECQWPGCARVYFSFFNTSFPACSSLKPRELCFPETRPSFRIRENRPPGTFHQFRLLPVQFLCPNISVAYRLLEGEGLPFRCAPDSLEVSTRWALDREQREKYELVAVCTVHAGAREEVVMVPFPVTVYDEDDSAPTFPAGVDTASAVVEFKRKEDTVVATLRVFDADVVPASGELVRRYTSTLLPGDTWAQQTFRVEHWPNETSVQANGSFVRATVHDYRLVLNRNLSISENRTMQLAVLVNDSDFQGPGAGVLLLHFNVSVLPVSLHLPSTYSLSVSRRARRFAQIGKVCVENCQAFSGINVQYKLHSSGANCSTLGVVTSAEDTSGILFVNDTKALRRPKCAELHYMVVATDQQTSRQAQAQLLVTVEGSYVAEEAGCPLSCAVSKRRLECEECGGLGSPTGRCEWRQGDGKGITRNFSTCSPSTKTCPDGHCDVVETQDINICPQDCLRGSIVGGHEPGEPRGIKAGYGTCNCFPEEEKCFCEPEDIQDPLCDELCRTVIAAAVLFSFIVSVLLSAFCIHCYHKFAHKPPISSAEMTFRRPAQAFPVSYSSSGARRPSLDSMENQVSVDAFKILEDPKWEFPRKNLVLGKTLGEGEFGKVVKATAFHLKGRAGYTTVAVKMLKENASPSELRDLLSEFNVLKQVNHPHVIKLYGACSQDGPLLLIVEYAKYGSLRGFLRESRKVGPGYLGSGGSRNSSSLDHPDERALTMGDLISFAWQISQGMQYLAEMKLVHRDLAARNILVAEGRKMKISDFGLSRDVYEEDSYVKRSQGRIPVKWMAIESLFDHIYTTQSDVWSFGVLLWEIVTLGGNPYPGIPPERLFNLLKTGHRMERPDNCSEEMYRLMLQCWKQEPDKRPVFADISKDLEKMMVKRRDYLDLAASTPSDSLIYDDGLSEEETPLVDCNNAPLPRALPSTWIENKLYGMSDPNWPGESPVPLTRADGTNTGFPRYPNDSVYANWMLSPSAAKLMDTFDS
T16 sequence (P07949 713-1063 G810S limits assumed): as the sequence (P07949 713-1063 M759I limits assumed) above, with I47M, G98S counted along it
T13 sequence (P07949 713-1063 G810A limits assumed): as the sequence (P07949 713-1063 M759I limits assumed) above, with I47M, G98A counted along it
T2 sequence (P07949 713-1063 limits assumed): as the sequence (P07949 713-1063 M759I limits assumed) above, with I47M counted along it
T6 sequence (P07949 713-1063 G736A limits assumed): as the sequence (P07949 713-1063 M759I limits assumed) above, with G24A, I47M counted along it

IC50 [2] | kinases inhibited by >50% [3] | IC50 [4] | IC50 [5] | IC50 [6] | IC50 [7] | IC50 [8] | IC50 [9] | IC50 [10] | IC50 [11] | IC50 [12] | IC50 [13] | IC50 [14] | IC50 [15] | IC50 [16] | IC50 [17] | IC50 [18] | IC50 [19] | Kp uu [20] | Structure (SMILES) | Change in tumor volume (% from base line) [1]
– | – | – | – | – | – | – | – | – | – | – | – | – | – | – | – | – | – | – | COc1ccc(CN2C3CC2CN(c2ccc(-c4cc(OCC(C)(C)O)cn5ncc(C#N)c45)cn2)C3)cn1 [Sepercatinib] | -13.818% and -42.542% and -38.123% and -35.767% and -33.072%
0.26 ± 0.02 nM | 39 | 21.9 nM | 16.6 nM | 4.49 nM | 14.7 nM | 3.21 nM | < 1 nM and 1.2 nM and 1.72 nM | 5.35 nM | 4.05 nM | 2.69 nM | 50.6 nM | 50 nM | 6.53 nM | 36.1 nM | 57.9 nM | 5.87 nM | 108 nM | 0.077 | C[C@H]1CNC(=O)c2cnn3cc4c(nc23)N(Cc2cc(F)cnc2O1)[C@@H]1CCC[C@@H]1O4 [TPX-0046] | –
